Columns and labels:
[1] = tested on: CEM (human lymphoblastoid leukemia); experiment: In vitro cytotoxic activity, Calcein AM; assay type: cell-based; details: Homo sapiens, 72 h, three days
Description: We have been using the following cell lines: HELA (human cervical carcinoma), MCF7 (human breast adenocarcinoma), NIH 3T3 (mouse fibroblasts), HOS (human osteogenic sarcoma), HL 60 (human promyelocytic leukemia), G 361 (human malignant melanoma), K562 (human erythroleukemia), CEM (human lymphoblastoid leukemia). Tested drugs were added to the cell cultures in six different concentration and kept at 37° C. and 5% CO2 for three days. All cell lines were grown in DMEM medium (Gibco BRL) supplemented with 10% (v/v) fetal bovine serum and L-glutamine and maintained at 37° C. in a humidified atmosphere with 5% CO2. 10^4 cells were seeded into each well of 96 well plate, allowed to stabilize for at least 2 h and then tested compounds were added at various concentrations ranging from 200 to 0.2 μM in triplicates. Three days after drug addition Calcein AM solution (Molecular Probes) was added and let to enter the cells for 1 hour. Fluorescence of viable cells was quantified employing Fluoroskan Ascent (Microsystems).

B16 = experiment: In vitro cytotoxic activity, Calcein AM; assay type: cell-based; details: Mus musculus, B16, 72 h, three days
normal human lymphocytes = experiment: Immunosuppressive activity, 3H-thymidine incorporation in concanavalin A activated lymphocytes; assay type: cell-based; details: Lymphocyte, 72 hours, [3H]-TdR, read-out: Human lymphocytes ED50
Description: Human heparinized peripheral blood was obtained from healthy volunteers by cubital vein punction. The blood was diluted in PBS (1:3) and mononuclear cells were separated by centrifugation in Ficoll-Hypaque density gradient (Pharmacia, 1.077 g/ml) at 2200 rpm for 30 minutes. Following centrifugation, lymphocytes were washed in PBS and resuspended in cell culture medium (RMPI 1640, 2 mM glutamine, 100 U/ml penicillin, 100 μg/ml streptomycin, 10% fetal calf serum and sodium bicarbonate).
The cells were diluted at target density of 1.100.000 cells/ml were added by pipette (180 μl) into 96/well microtiter plates. Four-fold dilutions of the intended test concentration were added at time zero in 20 μl aliquots to the microtiter plate wells. Usually, test compound was evaluated at six 4-fold dilutions. In routine testing, the highest well concentration was 266.7 μM. All drug concentrations were examined in duplicates. All wells with exception of unstimulated controls were activated with 50 μl of concanavalin A (25 μg/ml). Incubations of cells with test compounds lasted for 72 hours at 37° C., in 5% CO2 atmosphere and 100% humidity. At the end of incubation period, the cells were assayed by using the [^3H]-TdR:
Cell cultures were incubated with 0.5 μCi (20 μl of stock solution […]) per well for 6 hours at 37° C. and 5% CO2. The automated cell harvester was used to lyse cells in water and adsorb the DNA onto glass-fiber filters in the format of microtiter plate. The DNA incorporated [^3H]-TdR was retained on the filter while unincorporated material passes through. The filters were dried at room temperature overnight, sealed into a sample bag with 10-12 ml of scintillant. The amount of [^3H]-TdR present in each filter (in cpm) was determined by scintillation counting in a Betaplate liquid scintillation counter. The effective dose of immunosuppressant (ED) was calculated using the following equation: ED=(CCPMdrug exposed well/mean CCPMcontrol wells)×100%.

MMK1 protein kinase = MMK1 protein kinase (Vicia faba, UniProt A0AAV1B7B8); experiment: MMK1 protein kinase activity; assay type: biochemical
Sequence of MMK1 protein kinase (A0AAV1B7B8 1-394): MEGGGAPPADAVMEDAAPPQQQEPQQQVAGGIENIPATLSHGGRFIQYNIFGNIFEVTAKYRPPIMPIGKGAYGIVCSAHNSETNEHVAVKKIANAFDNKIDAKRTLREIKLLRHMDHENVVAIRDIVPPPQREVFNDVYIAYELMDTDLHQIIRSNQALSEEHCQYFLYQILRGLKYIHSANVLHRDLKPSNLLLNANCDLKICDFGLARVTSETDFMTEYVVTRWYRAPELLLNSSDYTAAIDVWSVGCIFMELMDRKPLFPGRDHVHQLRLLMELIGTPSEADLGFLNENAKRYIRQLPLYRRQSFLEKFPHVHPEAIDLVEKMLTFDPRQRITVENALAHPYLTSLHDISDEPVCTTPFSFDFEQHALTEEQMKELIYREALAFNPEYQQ
Description: Protein extraction and purification of pant CDK by binding to p13^suc1-beads or immunopurification with an antibody specific to the cdc2a-MS protein was carried out as described previously (Bögre et al. 1997, Plant Physiol. 113, 1997, 841-852). The MMK1 protein kinase was purified with a specific antibody from Vicia faba extracts as described by Bögre et al. 1997a, Plant Cell 9, 75-83). Protein kinase activity was measures as described above in Example 20. The quantification of radioactivity incorporated into histone H1 or myelin basic protein was undertaken using phosphoimager (FIG. 2).

Question: What does the source list for `CC(C)c1n[nH]c2c(Nc3cccc(Cl)c3)nc(NCCCN)nc12`?
Answer: GI50 [1]: 15 µM; GI50 (B16): 18 µM; EC50 (normal human lymphocytes): 4.5 µM; IC50 (MMK1 protein kinase): 0.08 µM

Question: How did the GI50 [1] turn out when `CC(C)c1n[nH]c2c(NCc3ccccc3)nc(NCCCN)nc12` was run?
Answer: 24 µM

Question: What about the GI50 (B16) of the same compound?
Answer: 28 µM

Question: And the EC50 (normal human lymphocytes)?
Answer: 9.8 µM

Question: For `Cc1n[nH]c2c(NCc3ccccc3)nc(NCCCN)nc12`, which GI50 [1] is on record?
Answer: 32 µM

Question: What about the GI50 (B16) of the same compound?
Answer: 38 µM

Question: And the EC50 (normal human lymphocytes)?
Answer: 12.4 µM

Question: And the IC50 (MMK1 protein kinase)?
Answer: 1.4 µM

Question: Which results are given for `CC(C)c1n[nH]c2c(Nc3cccc(Cl)c3)nc(NCCCO)nc12`?
Answer: GI50 [1]: 15 µM; GI50 (B16): 33 µM; EC50 (normal human lymphocytes): 12 µM; IC50 (MMK1 protein kinase): 0.2 µM

Question: Which GI50 [1] does the source give for `CC(C)c1n[nH]c2c(NCc3ccccc3)nc(NCCCO)nc12` here?
Answer: 21 µM

Question: And the GI50 (B16)?
Answer: 32 µM

Question: What about the EC50 (normal human lymphocytes) of the same compound?
Answer: 21 µM

Question: And the IC50 (MMK1 protein kinase)?
Answer: 0.8 µM

Question: How did the GI50 [1] turn out when `Cc1n[nH]c2c(NCc3ccccc3)nc(NC3CCC(N)CC3)nc12` (stereo not drawn) was run?
Answer: 1.7 µM

Question: What about the GI50 (B16) of the same compound?
Answer: 2.5 µM

Question: What about the EC50 (normal human lymphocytes) of the same compound?
Answer: 1.5 µM

Question: What about the IC50 (MMK1 protein kinase) of the same compound?
Answer: 0.6 µM

Question: For `CC(C)c1n[nH]c2c(Nc3cccc(Cl)c3)nc(N(CCO)CCO)nc12`, which GI50 [1] is on record?
Answer: 21 µM

Question: What about the GI50 (B16) of the same compound?
Answer: 34 µM

Question: What about the EC50 (normal human lymphocytes) of the same compound?
Answer: 7 µM

Question: What about the IC50 (MMK1 protein kinase) of the same compound?
Answer: 0.19 µM

Question: With `CC(C)c1n[nH]c2c(NCc3ccccc3)nc(N[C@@H](CO)C(C)C)nc12` as the compound, how does the GI50 [1] read?
Answer: 2.2 µM

Question: And the GI50 (B16)?
Answer: 2.3 µM

Question: And the EC50 (normal human lymphocytes)?
Answer: 6.5 µM

Question: `CC[C@H](CO)Nc1nc(NCc2ccccc2OC(C)=O)c2[nH]nc(C(C)C)c2n1` was tested. Which GI50 [1] did it give?
Answer: 13.8 µM

Question: And the GI50 (B16)?
Answer: 19.3 µM

Question: And the IC50 (MMK1 protein kinase)?
Answer: 0.2 µM

Question: How did the GI50 [1] turn out when `CC[C@H](CO)Nc1nc(NCc2ccccc2C(C)=O)c2[nH]nc(C(C)C)c2n1` was run?
Answer: 11.9 µM

Question: And the GI50 (B16)?
Answer: 16.3 µM

Question: And the IC50 (MMK1 protein kinase)?
Answer: 0.015 µM

Question: How did the GI50 [1] turn out when `CC[C@H](CO)Nc1nc(NCc2cccc(Cl)c2O)c2[nH]nc(C(C)C)c2n1` was run?
Answer: 1.2 µM

Question: And the GI50 (B16)?
Answer: 2.4 µM

Question: And the IC50 (MMK1 protein kinase)?
Answer: 0.012 µM

Question: `CC[C@H](CO)Nc1nc(NCc2cccc(OC)c2O)c2[nH]nc(C(C)C)c2n1` was tested. Which GI50 [1] did it give?
Answer: 3.1 µM

Question: And the GI50 (B16)?
Answer: 6.2 µM

Question: What about the IC50 (MMK1 protein kinase) of the same compound?
Answer: 0.012 µM

Question: How did the GI50 [1] turn out when `CC[C@H](CO)Nc1nc(NCc2cccc(C)c2O)c2[nH]nc(C(C)C)c2n1` was run?
Answer: 1.9 µM

Question: What about the GI50 (B16) of the same compound?
Answer: 2.1 µM

Question: What about the IC50 (MMK1 protein kinase) of the same compound?
Answer: 0.014 µM

Question: Which GI50 [1] does the source give for `CC[C@H](CO)Nc1nc(NCc2ccccc2O)c2[nH]nc(C(C)C)c2n1` here?
Answer: 7.8 µM

Question: What about the GI50 (B16) of the same compound?
Answer: 9.3 µM

Question: What about the IC50 (MMK1 protein kinase) of the same compound?
Answer: 0.012 µM

Question: What does the source list for `CC[C@H](CO)Nc1nc(NCc2ccc(Cl)c(O)c2O)c2[nH]nc(C(C)C)c2n1`?
Answer: GI50 [1]: 3.1 µM; GI50 (B16): 5.6 µM; IC50 (MMK1 protein kinase): 0.011 µM

Question: How did the GI50 [1] turn out when `CC[C@H](CO)Nc1nc(NCc2ccc(OC)c(O)c2O)c2[nH]nc(C(C)C)c2n1` was run?
Answer: 4.7 µM

Question: What about the GI50 (B16) of the same compound?
Answer: 6.2 µM

Question: What about the IC50 (MMK1 protein kinase) of the same compound?
Answer: 0.005 µM

Question: For `CC[C@H](CO)Nc1nc(NCc2cc(O)c(Cl)cc2O)c2[nH]nc(C(C)C)c2n1`, which GI50 [1] is on record?
Answer: 2.5 µM

Question: What about the GI50 (B16) of the same compound?
Answer: 4.8 µM

Question: And the IC50 (MMK1 protein kinase)?
Answer: 0.015 µM

Question: Which results are given for `CC[C@H](CO)Nc1nc(NCc2cccc(OC(C)=O)c2)c2[nH]nc(C(C)C)c2n1`?
Answer: GI50 [1]: 18.5 µM; GI50 (B16): 23.7 µM; IC50 (MMK1 protein kinase): 0.4 µM

Question: With `CC[C@H](CO)Nc1nc(NCc2cccc(C(C)=O)c2)c2[nH]nc(C(C)C)c2n1` as the compound, how does the GI50 [1] read?
Answer: 11.5 µM

Question: What about the GI50 (B16) of the same compound?
Answer: 19.1 µM

Question: And the IC50 (MMK1 protein kinase)?
Answer: 0.04 µM

Question: What does the source list for `CC[C@H](CO)Nc1nc(Nc2ccc(Cl)c(N)c2)c2[nH]nc(C(C)C)c2n1`?
Answer: GI50 [1]: 4.7 µM; GI50 (B16): 7.5 µM; IC50 (MMK1 protein kinase): 0.013 µM

Question: For `CC[C@H](CO)Nc1nc(Nc2ccc(O)c(C(=O)O)c2)c2[nH]nc(C(C)C)c2n1`, which GI50 [1] is on record?
Answer: 18.4 µM

Question: What about the GI50 (B16) of the same compound?
Answer: 25.8 µM

Question: What about the IC50 (MMK1 protein kinase) of the same compound?
Answer: 0.03 µM

Question: Which GI50 [1] does the source give for `CC[C@H](CO)Nc1nc(Nc2cc(N)cc(Cl)c2)c2[nH]nc(C(C)C)c2n1` here?
Answer: 9.4 µM

Question: And the GI50 (B16)?
Answer: 16.5 µM

Question: And the IC50 (MMK1 protein kinase)?
Answer: 0.02 µM

Question: Which results are given for `CC[C@H](CO)Nc1nc(NCc2cccc(O)c2)c2[nH]nc(C(C)C)c2n1`?
Answer: GI50 [1]: 10.5 µM; GI50 (B16): 12.4 µM; IC50 (MMK1 protein kinase): 0.04 µM

Question: What does the source list for `CC[C@H](CO)Nc1nc(NCc2ccc(O)c(O)c2)c2[nH]nc(C(C)C)c2n1`?
Answer: GI50 [1]: 9.2 µM; GI50 (B16): 15.7 µM; IC50 (MMK1 protein kinase): 1.1 µM

Question: How did the GI50 [1] turn out when `CC[C@H](CO)Nc1nc(Nc2ccccc2)c2[nH]nc(C(C)C)c2n1` was run?
Answer: 13.2 µM

Question: What about the GI50 (B16) of the same compound?
Answer: 18.4 µM

Question: What about the IC50 (MMK1 protein kinase) of the same compound?
Answer: 0.11 µM

Question: `Cc1n[nH]c2c(Nc3ccccc3)nc(NCCO)nc12` [2-hydroxyethylamino / anilino / methyl] was tested. Which GI50 [1] did it give?
Answer: 10.2 µM

Question: What about the GI50 (B16) of the same compound?
Answer: 12.4 µM

Question: And the IC50 (MMK1 protein kinase)?
Answer: 2.5 µM

From US7745450B2, “Pyrazolo[4,3-d]pyrimidines, processes for their preparation and methods for therapy” (Institute of Experimental Botany, priority 2002, dated 2010)
